Laboratory results taken from patent US20260226006A1, “INDOLE COMPOUND, PREPARATION METHOD THEREFOR AND USE THEREOF” (SUZHOU MERNA THERAPEUTICS CO. LTD, priority 2023, published 2026).

Legend:
paw plantar skin of rats = test: Rat models with hand-foot skin reaction, topical ointment (Example 22); type: in vivo, SD rats; conditions: for Incidence rate (successful modeling rate for hand-foot skin reaction): modeling drug alone by gavage once daily, no ointment, SD rats, 30 days
Protocol: After adaptive feeding for one week, SD rats (with a body weight of approximately 200 g) were randomly divided into groups according to the body weight, with 12 rats in each group. Modeling drugs (including sorafenib, erlotinib, afatinib, and osimertinib) were respectively dissolved in a solution containing 5% of DMSO, 45% of PEG400, and 50% of H2O, and the modeling drugs were diluted to required concentrations and then administered once daily by gavage at doses shown in Table 3. After administration by gavage for 1 hour, 0.05 g of ointments containing different mass proportions of test compounds were evenly applied to left paws of the rats, a blank matrix ointment was applied to right paws of the rats to serve as a self-control, and no ointment was applied to the rats in a blank control group. After drug application, four limbs were continuously immobilized for 2 hours, then wiped with clean water to remove the residual drugs, removed from immobilization, and restored to free movement. The modeling drugs, the blank matrix ointment, and the ointments containing the test compounds were all administered once daily. After continuous administration for 30 days, the rats were euthanized, and paw plantar skin tissues were collected, fixed in 10% neutral formalin, […]. The ointments for the test compounds were prepared by mixing the compounds, white beeswax, white petrolatum, and light liquid paraffin in specific ratios (weight ratios of 3 ointments were respectively 1:18:58:23, 3:18:57:22, and 10:20:40:30). The blank matrix ointment was prepared by mixing white beeswax, white petrolatum, and light liquid paraffin in a specific ratio (weight ratio of 18:60:22).
Tissue staining: After dewaxing and rehydration, the paw plantar skin tissue sections of the above rats were stained in a hematoxylin solution for several minutes, cleaned, and placed in 1% acid alcohol for soaking until the sections faded to light blue-red. After cleaning with running water for 5 minutes, the sections were stained with eosin for 2-3 minutes, cleaned to remove excess dyes, dehydrated, then permeabilized by adding xylene for several minutes, and sealed and fixed with a neutral resin. The stratum corneum was observed under an optical microscope, and the thickness of the epidermal stratum corneum was measured using Dmetrix software.
Immunohistochemical staining: After dewaxing and hydration, the paw plantar skin tissue sections of the above rats were incubated with 3% H2O2 at room temperature for 30 minutes and blocked with 10% goat serum for 30 minutes after antigen retrieval. A KRT1 antibody (Abcam, ab93652) and a Loricrin antibody (Abcam, ab183646) were added dropwise, the sections were incubated overnight at 4° C., and an HRP secondary antibody (ZSGB-BIO, PV-6001) and a DAB kit (ZSG-BIO, ZLI9017) were added for color development. The sections were re-stained with hematoxylin, cleaned, and sealed and fixed with a neutral resin, and the expression amounts of KRT1 and Loricrin were observed under an optical microscope.
An incidence rate calculation method involves a proportion of animals in each group meeting the above criteria for determining successful modeling, that is, incidence rate=(number of successfully modeled rats/total number of rats in the group)*100%. […]

HaCat cells = test: m6A methylation level of human HaCat keratinocytes, EpiQuik m6A RNA methylation quantification kit (Example 20); type: cell-based; conditions: HaCat cells, 24 hours
Protocol: HaCat cells were cultured in a DMEM culture medium containing 10% fetal bovine serum, 100 U/mL penicillin, and 100 μg/mL streptomycin. Culture dishes were placed in an incubator containing 5% CO2 for culture at 37° C. for 24 hours. An equal volume of DMSO was added in control group 1, 50 nM sorafenib, capecitabine, docetaxel, and osimertinib were respectively added in control groups A, B, C, and D, and 400 nM test compounds or nicotinamide were respectively added in sample groups A1-17, B1-17, C1-17, and D1-17 after the addition of 50 nM corresponding compounds. The cells were continuously cultured for 24 hours, washed with PBS, and then collected by high-speed centrifugation. Total RNA was extracted using a Trizol reagent (Sigma Aldrich), and RNA m6A methylation of a sample was quantitatively detected using an EpiQuik m6A RNA methylation quantification kit. The concentrations of positive control samples for a standard curve were 0.01 ng/μl, 0.02 ng/μl, 0.05 ng/μl, 0.1 ng/μl, 0.2 ng/μl, and 0.5 ng/μl. The absorbance at 450 nm was read using a microplate reader (Tecan GENios). A quantitative calculation formula for m6A is as follows:
m6A (ng)=(absorbance of sample well−absorbance of background well)/slope of standard curve m6A (%)=m6A (ng)/RNA amount of sample (ng)*100%.

HaCaT keratinocytes = test: Inhibition of HBEGF-induced differentiation of HaCaT keratinocytes, marker mRNA by RT-PCR (Example 21); type: cell-based, human; conditions: 2.5 ng/mL human recombinant HBEGF protein + test compound, 24 hours
Protocol: Human HaCaT keratinocytes were cultured in a DMEM culture medium containing 10% fetal bovine serum, 100 U/mL penicillin, and 100 µg/mL streptomycin. The cells were seeded into a 96-well plate at a density of […] and placed in an incubator containing 5% carbon dioxide for culture at 37° C. for 24 hours. An equal volume of DMSO was added into control well 1, a 2.5 ng/mL human recombinant HBEGF protein (Abcam, ab205523) was added into control well 2, and a 2.5 ng/mL human recombinant HBEGF protein and corresponding concentrations of test compounds were added into sample wells. The cells were continuously cultured for 24 hours, washed with PBS, and then collected by high-speed centrifugation. Total RNA was extracted using a Trizol reagent (Sigma Aldrich). 1 μg of RNA was reverse-transcribed into cDNA using a cDNA reverse transcription kit (Transgene Biotech, AT311-03). 1.25 μL of a primer (with a primer sequence shown in Table 2), 10 μL of an iTag Universal SYBR Green supermix (Bio-Rad, 172-S125), and an appropriate amount of DEPC ultrapure water were added to formulate 20 μL of a reaction solution to perform an RT-PCR reaction. Upon completion of the reaction, the reaction solution was subjected to agarose gel electrophoresis to determine the mRNA expression amounts of keratinocyte differentiation markers KRT1, KRT10, Loricrin, and Involucrin.

[1] = successfully modeled rats, modeling drug
[2] = 50 nM capecitabine + 400 nM test compound
[3] = 50 nM docetaxel + 400 nM test compound
[4] = 50 nM osimertinib + 400 nM test compound
[5] = 50 nM sorafenib + 400 nM test compound

| Structure (SMILES) | Incidence rate (successful modeling rate for hand-foot skin reaction) (paw plantar skin of rats) | Incidence rate (successful modeling rate for hand-foot skin reaction) (paw plantar skin of rats; listed as afatinib) | KRT1 and Loricrin in tissues (immunohistochemical staining) (paw plantar skin of rats; [1]) | stratum corneum thickness of the paw plantar skin (paw plantar skin of rats; [1]) | m6A fold change relative to control group 1 (HaCat cells; [2]) | m6A fold change relative to control group 1 (HaCat cells; [3]) | m6A fold change relative to control group 1 (HaCat cells; [4]) | m6A fold change relative to control group 1 (HaCat cells; [5]) | mRNA expression amounts of HaCaT differentiation markers KRT1, KRT10, Loricrin, and Involucrin (HaCaT keratinocytes) | KRT1 and Loricrin in tissues (immunohistochemical staining) (paw plantar skin of rats; rat, in vivo) | stratum corneum thickness of the paw plantar skin (paw plantar skin of rats; rat, in vivo) |
| --- | --- | --- | --- | --- | --- | --- | --- | --- | --- | --- | --- |
| CN(C)C/C=C/C(=O)Nc1cc2c(Nc3ccc(F)c(Cl)c3)ncnc2cc1O[C@H]1CCOC1 [Afatinib, afatinib, reference compound] | 8/12 (66.7%) | 66.7% | significantly increased | significantly higher than that of normal rats | – | – | – | – | – | – | – |
| NC(=O)C1CCCc2c1[nH]c1ccc(F)cc21 (centres unmarked) [Compound 1, 6-fluoro-2,3,4,9-tetrahydro-1H-carbazole-1-carboxamide] | – | – | – | – | 3.0 | 3.2 | 3.4 | 2.9 | – | – | – |
| NC(=O)[C@@H]1CCCc2c1[nH]c1ccc(Cl)cc21 [Compound 2a, (R)-6-chloro-2,3,4,9-tetrahydro-1H-carbazole-1-carboxamide] | – | – | – | – | 3.5 | 5.6 | 3.2 | 3.4 | – | – | – |
| NC(=O)C1CCCc2c1[nH]c1ccc(Cl)c(F)c21 (centres unmarked) [Compound 3a, 6-chloro-5-fluoro-2,3,4,9-tetrahydro-1H-carbazole-1-carboxamide] | – | – | – | – | 2.8 | 4.2 | 2.9 | 3.3 | significantly inhibited | – | – |
| NC(=O)C1CCCc2c1[nH]c1cc(F)c(Cl)cc21 (centres unmarked) [Compound 3b, 6-chloro-7-fluoro-2,3,4,9-tetrahydro-1H-carbazole-1-carboxamide] | – | – | – | – | 2.9 | 3.2 | 3.1 | 3.3 | significantly inhibited | – | – |
| NC(=O)C1CCCc2c1[nH]c1cc(F)c(Cl)c(F)c21 (centres unmarked) [Compound 4, 6-chloro-5,7-difluoro-2,3,4,9-tetrahydro-1H-carbazole-1-carboxamide] | – | – | – | – | 3.2 | 5.1 | 4.2 | 3.6 | – | – | – |
| NC(=O)C1c2[nH]c3ccc(Cl)cc3c2C2CCC1C2 (centres unmarked) [Compound 5, 2-chloro-5,6,7,8,9,10-hexahydro-7,10-methanocyclohepta[b]indole-6-carboxamide] | – | – | – | – | 3.0 | 2.9 | 3.1 | 2.4 | – | – | – |
| NC(=O)C1c2[nH]c3ccc(Cl)cc3c2C2CCC1C2 [Compound 5b, (R)-2-chloro-5,6,7,8,9,10-hexahydro-7,10-methanocyclohepta[b]indole-6-carboxamide] | – | – | – | – | 4.8 | 4.8 | 5.0 | 3.8 | – | – | – |
| CC1CCC(C(N)=O)c2[nH]c3ccc(Cl)cc3c21 (centres unmarked) [Compound 6, 6-chloro-4-methyl-2,3,4,9-tetrahydro-1H-carbazole-1-carboxamide] | – | – | – | – | 3.2 | 5.1 | 3.5 | 3.4 | – | – | – |
| NC(=O)C1CCC(F)c2c1[nH]c1ccc(Cl)cc21 (centres unmarked) [Compound 7, 6-chloro-4-fluoro-2,3,4,9-tetrahydro-1H-carbazole-1-carboxamide] | – | – | – | – | 3.9 | 3.4 | 2.9 | 3.3 | – | – | – |
| CN1CCC(C(N)=O)c2[nH]c3ccc(Cl)cc3c21 (centres unmarked) [Compound 8, 8-chloro-1-methyl-2,3,4,5-tetrahydropyrido[3,2-b]indole-4-carboxamide] | – | – | – | – | 1.7 | 3.0 | 2.1 | 2.5 | – | – | – |
| CN1CC[C@@H](C(N)=O)c2[nH]c3ccc(Cl)cc3c21 [Compound 8a, (R)-8-chloro-1-methyl-2,3,4,5-tetrahydropyrido[3,2-b]indole-4-carboxamide] | – | – | – | – | 2.4 | 4.8 | 3.2 | 4.0 | – | – | – |
| NC(=O)C1CCCc2c1[nH]c1cc(Nc3ccccc3)c(Cl)cc21 (centres unmarked) [Compound 9, 6-chloro-7-phenylamino-2,3,4,9-tetrahydro-1H-carbazole-1-carboxamide] | – | – | – | – | 3.9 | 3.9 | 4.0 | 3.5 | – | – | – |
| C#Cc1cccc(Nc2ncnc3cc(OCCOC)c(OCCOC)cc23)c1 [Erlotinib, erlotinib, reference compound] | – | – | – | – | – | – | – | – | – | significantly increased | significantly higher than that of normal rats |
